Measured values reported in article PMC4910235, “Selenophene and thiophene-core estrogen receptor ligands that inhibit motility and development of parasitic stages of Haemonchus contortus” (Parasites & Vectors, 2016).
Where two headings read alike, the source gives them in different places.

How the values were obtained:
[1] = test system: exsheathed third-stage larvae (xL3s) of H. contortus; assay: xL3 motility assay (whole-organism screen and dose-response); assay type: cell-based, Haemonchus contortus; conditions: for activity at 20 µM: Haemonchus contortus, 72 h, percent of motility compared with controls, mean of triplicate ± SEM
Method: The selenophene and thiophene-core ligands (n = 74) (Additional file 1) were screened at a concentration of 20 μM on exsheathed third-stage larvae (xL3s) of H. contortus in 96-well microculture plates (cat. no. 3635; Corning 3650, Life Sciences, Corning, USA) using relevant control compounds (i.e. moxidectin and monepantel), as described previously. In brief, compounds were dissolved to a stock concentration of 10 mM in either dimethyl sulfoxide (DMSO) or methanol (Sigma-Adrich Scientific, St. Louis, USA). These ligands were then individually diluted to the final concentration of 20 μM using Luria Bertani medium (LB) supplemented with 100 IU/ml of penicillin, 100 μg/ml of streptomycin and 2.5 μg/ml of amphotericin (LB*). Compounds were dispensed (in triplicate) into the wells of a 96-well microculture plate using a multichannel pipette. In addition, the negative controls (LB*, LB* + 0.5 % solvent; six wells each), and positive controls (20 μM of monepantel; Zolvix, Novartis Animal Health, Basel, Switzerland and 20 μM of moxidectin; Cydectin, Virbac, Carros, France; triplicate wells) and xL3s (~300/well) were dispensed into wells of the plate using an automated multichannel pipette (Viaflo Assist/II, Integra Biosciences, Zizers, Switzerland). […], a video recording (5 s) was taken of each well of the 96-well microculture plate (containing xL3s) using a greyscale camera (Rolera Bolt CMOS, Qimaging Scientific, Surrey, Canada) and a motorised X-Y axis stage (BioPoint 2, Ludl Electronics Products, Hawthorne, USA). Individual videos were processed to calculate a motility index (MI) using an algorithm described previously. MIs were normalised to the negative and positive controls (to remove plate-to-plate variation) using the program Prism (v.6 GraphPad Software, USA). Z’-scores were calculated to validate the performance of the screening assay; reliable assays achieve Z’-scores of between 0.5 and 1 [28]. A compound was recorded as having an activity if it reduced xL3 motility by ≥ 70 % following incubation for 72 h. […] Compounds that reduced the motility of xL3s were also tested for their ability to inhibit the motility of L4s (same protocol as for xL3s) and/or to affect the development of xL3s to L4s. Following the measurement of L4 motility, larvae were re-incubated for 4 more days and fixed with 1 % iodine (50 μl). Then, L4 development was assessed based on the presence of a well-developed mouth/pharynx using a light microscope and expressed as a percentage of the total number of larvae examined (n = 30).
All assays (to assess xL3 motility, L4 development and L4 motility) were performed in triplicate, three times, on separate days.

[2] = 20 μM, read-out: xL3 Motility Index(%)
[3] = read-out: xL3 Motility Index(%), 20 μM, 72 h

| Compound | activity on xL3 motility, in words ([1]; 20 μM) | activity at 20 µM [1, 2] | melting point | activity at 20 µM [1, 3] |
| --- | --- | --- | --- | --- |
| COc1ccc(-c2cscc2-c2ccc(OC)cc2Cl)c(Cl)c1 [MJ-4] | Poor activity | 81.6 ± 15.7% | 121 to 125 °C |  |
| Oc1ccc(-c2ccc(-c3ccc(O)cc3Cl)s2)c(Cl)c1 [MJ-29] |  | 66.6 ± 2.7% |  |  |
| Oc1ccc(-c2ccsc2-c2ccc(O)cc2Cl)c(Cl)c1 [MJ-32] | lost all activity | 102 ± 3.6% |  |  |
| Cc1cc(-c2cscc2-c2ccc(O)c(C)c2)ccc1O [MJ-33] | poor activity | 85.5 ± 10.6% |  |  |
| Oc1ccc(-c2cscc2-c2ccc(O)cc2)cc1 [MJ-35] | complete loss of activity | 102 ± 1.5% |  |  |
| COc1ccc(-c2ccc(-c3ccc(OC)cc3Cl)[se]2)c(Cl)c1 [WZY-1] | limited reduction in motility |  |  | 77.9 ± 6.6% |
| Oc1ccc(-c2ccc(-c3ccc(O)cc3F)[se]2)c(F)c1 [WZY-3] |  |  |  | 100 ± 7.7% |
| Oc1ccc(-c2cc(Br)c(-c3ccc(O)c(Cl)c3)[se]2)cc1Cl [WZY-4] | “lost” activity |  |  | 123 ± 7.8% |
| COc1c(C)cc(-c2cc(Br)c(-c3cc(C)c(OC)c(C)c3)[se]2)cc1C [WZY-5] | “lost” activity |  |  | 105 ± 18.6% |
